Inconclusive results are not listed. The source made the active and inactive calls.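 Rule for the calls: active = signal-lowering compounds whose fitted half-maximal concentration is at most ten times their highest tested dose; inconclusive = flat fit between -30 and -70%, or poor fit; inactive = flat within 30%, signal rising, or potency beyond limit.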
The molecules below were run against POS-1 (Caenorhabditis elegans) binding to mex-3 RNA (assay: C. elegans POS-1 RNA interaction disruptors – biochemical, fluorescence polarization, cherry-picked samples, set 2, counter-screen for MEX-5 RNA-binding inhibitor project, dose response (AID 493130;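 note: POS-1 as maltose binding protein fusion made in E. coli with FITC RNA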)). Details: POS-1/mex-3 RNA fluorescence polarization, 1 h.

Which AC50 does the source give for `O=C(N/N=C/C1C(=O)NC(=S)N(c2ccccc2)C1=O)c1cc(Br)c(O)c(Br)c1` (stereo not drawn) here?
Its AC50 is 7.64 µM.

Which AC50 does the source give for `CN1Cc2sc(N)c(C#N)c2CC1(C)C` here?
Its AC50 is 9.75 µM.

How did the AC50 turn out when `Cc1ccc(NC(=O)/C(C#N)=C(\N)C(Cl)(Cl)Cl)nc1` was run?
The AC50 was 6.68 µM.

Which AC50 does the source give for `Oc1ccc(/C=N/NC(=S)Nc2cccnc2)cc1O` here?
Its AC50 is 9.5 µM.

Which AC50 does the source give for `CC1C(=O)NN=C1C(=O)N/N=C\c1ccc(O)cc1O` (stereo not drawn) here?
The AC50 was 9.42 µM.

`CCOc1ccc(N=Nc2c(=O)[nH]n3c(=O)cc(C)[nH]c23)cc1` was tested. Which AC50 did it give?
The AC50 was > 10 µM (inactive).

`O=[N+]([O-])c1cc(/C=N\Nc2nccs2)ccc1O` was tested. Which AC50 did it give?
Its AC50 is 2.55 µM.

For `CC(=O)Nc1ccc2cc3ccc(NC(C)=O)cc3nc2c1`, which AC50 is on record?
The AC50 was 6.38 µM.

`CC(=O)Nc1cccc(C2=CC(c3ccco3)n3ncnc3N2)c1` (stereo not drawn) was tested. Which AC50 did it give?
The AC50 was 5.81 µM.

With `CCC(=O)Oc1ccc2c(c1)O/C(=C\c1ccco1)C2=O` as the molecule, how does the AC50 read?
Its AC50 is 5.63 µM.

Same assay, conditions: POS-1/mex-3 RNA fluorescence polarization, 1 h; at 10 µM (top of the series)

Which “activity change, negative = inhibition” value does the source give for `CC(C)=CCc1c(O)cc(O)c2c(=O)c(O[C@@H]3O[C@@H](C)[C@H](O)[C@@H](O)[C@H]3O)c(-c3ccc(O)cc3)oc12` here?
The value was “inactive”.

Which “activity change, negative = inhibition” value does the source give for `COc1ccc(N=Nc2c(C)[nH][nH]c2=O)cc1` here?
The value was “inactive”.

With `Cc1nc2c(N=Nc3ccccc3F)c(N)nn2c(N)c1C#N` as the molecule, how does the “activity change, negative = inhibition” value read?
The value was “inactive”.

How did the “activity change, negative = inhibition” value turn out when `O=c1c2ccccc2nc(/C=C/c2ccc([N+](=O)[O-])cc2)n1CCCO` was run?
The value was “inactive”.

How did the “activity change, negative = inhibition” value turn out when `CCc1ccc(N2C(=O)NC(=O)/C(=C/c3cccn3CCOc3ccc(C(C)CC)cc3)C2=O)cc1` (stereo not drawn) was run?
The value was “inactive”.

For `CC[n+]1c(/C=C/C=C/c2ccc(N(C)C)cc2)sc2ccccc21`, which “activity change, negative = inhibition” value is on record?
The value was “inactive”.

Which “activity change, negative = inhibition” value does the source give for `CN1CCc2c(sc(NC(=O)c3ccc(S(=O)(=O)N4CCCC4)cc3)c2C(N)=O)C1` here?
Its value is “inactive”.

`CCOC(=O)C1(C)/C(=N/Nc2cccc(Cl)c2)C(=O)C(=O)N1c1ccccc1` (stereo not drawn) was tested. Which “activity change, negative = inhibition” value did it give?
Its value is “inactive”.

Which “activity change, negative = inhibition” value does the source give for `Cc1c(C(=O)NNC(=S)Nc2ccc(S(N)(=O)=O)cc2)oc2ccccc12` here?
Its value is “inactive”.

`Cc1cc(/C=C2\C(=O)NC(=O)N(c3cccc(F)c3)C2=O)c(C)n1-c1cc(C(=O)O)cc(C(=O)O)c1` was tested. Which “activity change, negative = inhibition” value did it give?
Its value is “inactive”.

Which “activity change, negative = inhibition” value does the source give for `CCOC(=O)C1CCN(c2nc(N)c3c(N)nc(SCC(=O)O)cc3c2C#N)CC1` here?
The value was “inactive”.

For `COC(=O)/C=C1/S/C(=N/NC(=O)c2ccc(Cl)cc2Cl)NC1=O`, which “activity change, negative = inhibition” value is on record?
The value was “inactive”.

Which “activity change, negative = inhibition” value does the source give for `CN1C(=O)N(C)C(c2cccc([N+](=O)[O-])c2)C2=C1CCCC2=O` (stereo not drawn) here?
Its value is “inactive”.

For `COc1ccc(CN2C(=O)NC(=O)/C(=C\c3ccco3)C2=O)cc1`, which “activity change, negative = inhibition” value is on record?
Its value is “inactive”.

Which “activity change, negative = inhibition” value does the source give for `O=C(NNC(=O)c1ccccc1[N+](=O)[O-])c1ccco1` here?
Its value is “inactive”.

How did the “activity change, negative = inhibition” value turn out when `O=[N+]([O-])c1ccc(C2=CSC3=NCCN23)cc1` was run?
The value was “inactive”.

Which “activity change, negative = inhibition” value does the source give for `Cc1cccc(C)c1NC(=O)/C(C#N)=C/c1cccs1` here?
The value was “inactive”.

Which “activity change, negative = inhibition” value does the source give for `Cc1cc(C(=O)N/N=C/c2ccc(-c3ccc([N+](=O)[O-])cc3C)o2)n[nH]1` here?
Its value is “inactive”.

`NC(=O)C(=O)N/N=C/c1c2ccccc2cc2ccccc12` was tested. Which “activity change, negative = inhibition” value did it give?
Its value is “inactive”.

How did the “activity change, negative = inhibition” value turn out when `Nc1nc(Cl)nc2ccc(Br)cc12` was run?
The value was “inactive”.

`COc1ccc(NCc2cccnc2)cc1` was tested. Which “activity change, negative = inhibition” value did it give?
The value was “inactive”.

How did the “activity change, negative = inhibition” value turn out when `CN(C)S(=O)(=O)c1ccc(Cl)c(C(=O)Nc2cccc3ncccc23)c1` was run?
Its value is “inactive”.

How did the “activity change, negative = inhibition” value turn out when `Cc1cc(C(=O)N/N=C/c2ccc(-c3ccc([N+](=O)[O-])cc3Cl)o2)n[nH]1` was run?
The value was “inactive”.

With `Cc1ccc(/C=C2/NC(=O)N(Cc3ccccc3)C2=O)s1` as the molecule, how does the “activity change, negative = inhibition” value read?
Its value is “inactive”.

With `CCOC(=O)c1c(-c2ccc(C)o2)csc1NC(=S)NC(=O)c1cccs1` as the molecule, how does the “activity change, negative = inhibition” value read?
Its value is “inactive”.

For `Cc1ccc(N2C(=O)c3ccc(C(=O)O)cc3C2=O)cc1C`, which “activity change, negative = inhibition” value is on record?
Its value is “inactive”.

`CCOC(=O)C1CSc2[nH]c(=O)sc2C1c1ccccc1` (stereo not drawn) was tested. Which “activity change, negative = inhibition” value did it give?
Its value is “inactive”.

With `CCOC(=O)c1cc(-c2ccccc2)sc1NC(=S)Nc1cccc(C)n1` as the molecule, how does the “activity change, negative = inhibition” value read?
Its value is “inactive”.

Which “activity change, negative = inhibition” value does the source give for `COc1ccc(NC(=O)/C=C/c2cccc(C(F)(F)F)c2)cn1` here?
Its value is “inactive”.

How did the “activity change, negative = inhibition” value turn out when `O=C(/C=C(\O)c1ccccc1)C(=O)NNC(=O)c1ccccc1` was run?
Its value is “inactive”.

`O=c1[nH]nc(CNc2ccc(Cl)cc2Cl)c2ccccc12` was tested. Which “activity change, negative = inhibition” value did it give?
The value was “inactive”.

Which “activity change, negative = inhibition” value does the source give for `NC(=S)N=Nc1c(O)[nH]c2cc(F)c(F)cc12` here?
The value was “inactive”.

How did the “activity change, negative = inhibition” value turn out when `Cc1cccc(CS(=O)(=O)c2nnc([C@H](Cc3ccccc3)NC(=O)OC(C)(C)C)o2)c1` was run?
Its value is “inactive”.

Which “activity change, negative = inhibition” value does the source give for `Nc1ccc(S(=O)(=O)NNC(=O)C(=O)NNc2ccccn2)cc1` here?
The value was “inactive”.

With `COc1ccc2nc3ccccc3nc2c1N` as the molecule, how does the “activity change, negative = inhibition” value read?
Its value is “inactive”.

With `CNC(=O)c1cc2ccc(OC)cc2oc1=O` as the molecule, how does the “activity change, negative = inhibition” value read?
Its value is “inactive”.

For `CCc1cc(-c2n[nH]c(C)c2-c2nc3ccccc3s2)c(O)cc1OCC(=O)NN`, which “activity change, negative = inhibition” value is on record?
Its value is “inactive”.

Which “activity change, negative = inhibition” value does the source give for `O=C(N/N=C/c1oc(O)c2ccccc12)c1ccccc1O` here?
The value was “inactive”.

For `CCc1ccc(S(=O)(=O)/N=C2\C=C(Nc3ccc(C(=O)O)cc3)C(=O)c3ccccc32)cc1`, which “activity change, negative = inhibition” value is on record?
Its value is “inactive”.

Which “activity change, negative = inhibition” value does the source give for `O=C(O)/C=C/C(=O)NNc1ncnc2ccccc12` here?
The value was “inactive”.

How did the “activity change, negative = inhibition” value turn out when `Cc1cc2n(n1)C(c1c[nH]c3ccccc13)Nc1ccccc1-2` (stereo not drawn) was run?
Its value is “inactive”.

How did the “activity change, negative = inhibition” value turn out when `Cc1nc2c3ccccc3nc(NNC(=O)CCC(=O)N3CCC(C)CC3)n2n1` was run?
The value was “inactive”.

With `Cc1nc2nc(-c3ccc(Cl)cc3)cn2nc1C` as the molecule, how does the “activity change, negative = inhibition” value read?
The value was “inactive”.

Which “activity change, negative = inhibition” value does the source give for `CC1=Nc2cccc3cccc(c23)N1C` here?
The value was “inactive”.

How did the “activity change, negative = inhibition” value turn out when `CCCCn1c(N)c(N(Cc2ccccc2OC)C(=O)C(C)C)c(=O)[nH]c1=O` was run?
The value was “inactive”.

With `CN1/C(=C\C=C(/C#N)C(=O)Nc2ccccc2F)C(C)(C)c2ccccc21` as the molecule, how does the “activity change, negative = inhibition” value read?
The value was “inactive”.

With `COc1ccc(OC)c(Nc2nc(-c3ccc(O)c(O)c3)cs2)c1` as the molecule, how does the “activity change, negative = inhibition” value read?
The value was “inactive”.

With `COc1cc(/C=C2/C(=O)NN(c3ccc(Cl)c(Cl)c3)C2=O)cc([N+](=O)[O-])c1O` as the molecule, how does the “activity change, negative = inhibition” value read?
The value was “inactive”.

With `CC1(OC(=O)c2ccc(Cl)nc2)C(=O)C=C2C=C(c3ccc(C#N)cc3)OC=C2C1=O` (stereo not drawn) as the molecule, how does the “activity change, negative = inhibition” value read?
Its value is “inactive”.

How did the “activity change, negative = inhibition” value turn out when `CC(C)CN1CCN(Cc2cccc3ncccc23)CC1CCO` (stereo not drawn) was run?
Its value is “inactive”.

`O=C(O)Cc1c[nH]c2cccc(O)c12` was tested. Which “activity change, negative = inhibition” value did it give?
Its value is “inactive”.

For `O=C(O)c1cc(-c2ccc(/C=c3\sc4nc5ccc(Br)cc5n4c3=O)o2)ccc1Cl`, which “activity change, negative = inhibition” value is on record?
The value was “inactive”.

With `COCC(C)N1CCC(Oc2cccc(C(=O)NCCc3ccccc3)c2)CC1` (stereo not drawn) as the molecule, how does the “activity change, negative = inhibition” value read?
Its value is “inactive”.

`Cc1c(-c2ccc(F)cc2)nc(N)c(C#N)c1-c1ccco1` was tested. Which “activity change, negative = inhibition” value did it give?
The value was “inactive”.

`COc1ccc(NCc2n[nH]c(=O)c3ccccc23)cc1` was tested. Which “activity change, negative = inhibition” value did it give?
Its value is “inactive”.

For `COc1nc(N/N=C/c2ccc(-c3ccccc3[N+](=O)[O-])o2)nc(N2CCOCC2)n1`, which “activity change, negative = inhibition” value is on record?
The value was “inactive”.

With `CCS(=O)(=O)C1=NN2C(=N)/C(=C\c3ccc(SCc4ccco4)o3)C(=O)N=C2S1` as the molecule, how does the “activity change, negative = inhibition” value read?
Its value is “inactive”.

How did the “activity change, negative = inhibition” value turn out when `COc1cccc2cc(-c3nc(-c4cccs4)cs3)c(=O)oc12` was run?
The value was “inactive”.

From PubChem BioAssay AID493130 (Broad Institute, 2011)
